Data published in ChEMBL document CHEMBL3991601, “The target landscape of clinical kinase drugs” (Science, 2017).
Active and inactive are the calls of the source. Rule as the data show it, for most assays here: actives have a measured Kd and inactives only a lower limit.
Also: in the data inactive means no Kd found up to 30 µM.

Each compound was assayed against Non-receptor tyrosine-protein kinase TYK2 (Homo sapiens, UniProt P29597).
Non-receptor tyrosine-protein kinase TYK2, sequence (P29597 whole entry): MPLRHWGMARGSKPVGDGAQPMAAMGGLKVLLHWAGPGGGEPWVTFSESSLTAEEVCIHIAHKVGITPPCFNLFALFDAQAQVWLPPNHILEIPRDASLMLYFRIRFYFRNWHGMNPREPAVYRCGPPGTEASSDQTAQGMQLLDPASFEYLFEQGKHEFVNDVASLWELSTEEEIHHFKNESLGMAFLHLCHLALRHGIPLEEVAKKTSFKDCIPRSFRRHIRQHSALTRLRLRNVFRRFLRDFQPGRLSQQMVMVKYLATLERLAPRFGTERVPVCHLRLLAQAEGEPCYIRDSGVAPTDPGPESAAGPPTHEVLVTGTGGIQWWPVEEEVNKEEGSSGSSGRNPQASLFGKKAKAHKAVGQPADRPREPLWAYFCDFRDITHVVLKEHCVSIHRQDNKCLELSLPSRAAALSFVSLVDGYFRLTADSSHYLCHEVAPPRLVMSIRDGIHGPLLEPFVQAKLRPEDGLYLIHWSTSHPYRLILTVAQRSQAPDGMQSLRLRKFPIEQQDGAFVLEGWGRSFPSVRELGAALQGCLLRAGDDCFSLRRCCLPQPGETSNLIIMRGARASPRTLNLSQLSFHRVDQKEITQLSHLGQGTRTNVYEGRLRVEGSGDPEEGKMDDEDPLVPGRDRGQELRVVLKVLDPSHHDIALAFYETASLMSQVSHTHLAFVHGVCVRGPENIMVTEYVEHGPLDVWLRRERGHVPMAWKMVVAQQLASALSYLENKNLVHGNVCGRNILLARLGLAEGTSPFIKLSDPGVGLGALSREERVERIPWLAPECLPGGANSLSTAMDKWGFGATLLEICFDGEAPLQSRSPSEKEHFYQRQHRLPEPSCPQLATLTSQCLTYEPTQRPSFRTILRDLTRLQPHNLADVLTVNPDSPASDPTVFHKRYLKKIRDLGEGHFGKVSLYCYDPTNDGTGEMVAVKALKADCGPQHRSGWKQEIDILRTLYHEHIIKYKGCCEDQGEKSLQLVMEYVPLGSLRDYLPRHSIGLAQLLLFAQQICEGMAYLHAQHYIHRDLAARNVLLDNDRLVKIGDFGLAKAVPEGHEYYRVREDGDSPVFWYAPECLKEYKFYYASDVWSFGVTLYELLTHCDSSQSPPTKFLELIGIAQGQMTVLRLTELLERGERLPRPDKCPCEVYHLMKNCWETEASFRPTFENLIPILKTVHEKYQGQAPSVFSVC
In the case of `Cn1ncc(Cl)c1-c1cc(C(=O)N[C@H](CN)Cc2cccc(F)c2)sc1Cl` [AFURESERTIB], the Kd is reported as > 30 µM (inactive). In the case of `COc1cc(N2CCC(N3CCN(C)CC3)CC2)ccc1Nc1ncnc(Nc2ccccc2S(=O)(=O)C(C)C)n1` [ASP-3026], the Kd is reported as > 30 µM (inactive). In the case of `CNS(=O)(=O)Nc1nccc(Cc2c(C)c3ccc(Oc4ncccn4)cc3oc2=O)c1F` [AVUTOMETINIB], the Kd is reported as > 30 µM (inactive).

What follows are compounds tested against MAP kinase-activated protein kinase 2 (Homo sapiens, UniProt P49137).
MAP kinase-activated protein kinase 2, sequence (P49137 whole entry): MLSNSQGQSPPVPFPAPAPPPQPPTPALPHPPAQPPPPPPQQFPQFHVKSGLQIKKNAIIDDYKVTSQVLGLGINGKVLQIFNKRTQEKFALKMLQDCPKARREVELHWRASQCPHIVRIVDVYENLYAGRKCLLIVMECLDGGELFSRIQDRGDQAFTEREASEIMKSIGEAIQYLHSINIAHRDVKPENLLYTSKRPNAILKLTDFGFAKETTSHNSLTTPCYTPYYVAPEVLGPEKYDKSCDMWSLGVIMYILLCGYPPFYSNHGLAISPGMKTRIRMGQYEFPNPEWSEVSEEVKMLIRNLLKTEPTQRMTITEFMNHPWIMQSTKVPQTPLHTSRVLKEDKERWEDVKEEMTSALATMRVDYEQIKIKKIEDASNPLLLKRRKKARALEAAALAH
For `Cn1ncc(Cl)c1-c1cc(C(=O)N[C@H](CN)Cc2cccc(F)c2)sc1Cl` [AFURESERTIB], the Kd was > 30 µM (inactive). With `COc1cc(N2CCC(N3CCN(C)CC3)CC2)ccc1Nc1ncnc(Nc2ccccc2S(=O)(=O)C(C)C)n1` [ASP-3026] the Kd was > 30 µM (inactive). In the case of `CNS(=O)(=O)Nc1nccc(Cc2c(C)c3ccc(Oc4ncccn4)cc3oc2=O)c1F` [AVUTOMETINIB], the Kd is reported as > 30 µM (inactive).

The compounds below were run against T1, Serine/threonine-protein kinase TAO1 (Homo sapiens, UniProt Q7L7X3).
T1 sequence (Q7L7X3 whole entry): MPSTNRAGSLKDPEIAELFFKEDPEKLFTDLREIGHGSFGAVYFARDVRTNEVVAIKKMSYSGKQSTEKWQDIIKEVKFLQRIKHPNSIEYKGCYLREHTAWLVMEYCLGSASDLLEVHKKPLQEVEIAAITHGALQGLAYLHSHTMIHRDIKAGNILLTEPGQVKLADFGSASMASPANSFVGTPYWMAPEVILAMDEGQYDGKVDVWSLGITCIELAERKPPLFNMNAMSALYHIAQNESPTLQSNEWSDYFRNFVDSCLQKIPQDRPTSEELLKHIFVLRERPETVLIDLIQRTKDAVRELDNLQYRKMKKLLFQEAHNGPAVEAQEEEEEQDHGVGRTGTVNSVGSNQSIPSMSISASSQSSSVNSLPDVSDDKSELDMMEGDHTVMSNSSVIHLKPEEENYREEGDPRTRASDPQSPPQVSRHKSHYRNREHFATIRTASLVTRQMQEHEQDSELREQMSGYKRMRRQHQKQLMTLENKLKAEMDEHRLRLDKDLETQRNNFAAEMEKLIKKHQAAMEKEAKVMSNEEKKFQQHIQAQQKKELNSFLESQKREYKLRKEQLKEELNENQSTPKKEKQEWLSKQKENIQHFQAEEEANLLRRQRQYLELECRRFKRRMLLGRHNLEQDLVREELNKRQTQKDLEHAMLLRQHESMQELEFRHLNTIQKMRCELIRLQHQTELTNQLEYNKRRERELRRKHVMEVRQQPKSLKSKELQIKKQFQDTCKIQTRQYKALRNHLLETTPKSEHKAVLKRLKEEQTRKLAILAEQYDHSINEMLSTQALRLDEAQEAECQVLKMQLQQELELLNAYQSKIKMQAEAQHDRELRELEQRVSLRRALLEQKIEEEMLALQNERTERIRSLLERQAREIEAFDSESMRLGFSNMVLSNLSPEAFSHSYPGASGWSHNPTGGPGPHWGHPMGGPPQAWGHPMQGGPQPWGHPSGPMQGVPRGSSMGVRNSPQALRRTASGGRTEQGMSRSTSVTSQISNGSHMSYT
With `Cn1ncc(Cl)c1-c1cc(C(=O)N[C@H](CN)Cc2cccc(F)c2)sc1Cl` [AFURESERTIB] the Kd was > 30 µM (inactive). In the case of `COc1cc(N2CCC(N3CCN(C)CC3)CC2)ccc1Nc1ncnc(Nc2ccccc2S(=O)(=O)C(C)C)n1` [ASP-3026], the Kd is reported as > 30 µM (inactive). With `CNS(=O)(=O)Nc1nccc(Cc2c(C)c3ccc(Oc4ncccn4)cc3oc2=O)c1F` [AVUTOMETINIB] the Kd was > 30 µM (inactive).

These compounds were tested against ATP-dependent RNA helicase DDX3X (Homo sapiens, UniProt O00571).
For `Cn1ncc(Cl)c1-c1cc(C(=O)N[C@H](CN)Cc2cccc(F)c2)sc1Cl` [AFURESERTIB], the Kd was > 30 µM (inactive). `COc1cc(N2CCC(N3CCN(C)CC3)CC2)ccc1Nc1ncnc(Nc2ccccc2S(=O)(=O)C(C)C)n1` [ASP-3026] was tested, and the Kd was > 30 µM (inactive). `CNS(=O)(=O)Nc1nccc(Cc2c(C)c3ccc(Oc4ncccn4)cc3oc2=O)c1F` [AVUTOMETINIB] was tested, and the Kd was > 30 µM (inactive).

What follows are compounds tested against Ribosomal protein S6 kinase alpha-4 (Homo sapiens, UniProt O75676).
Ribosomal protein S6 kinase alpha-4, sequence (O75676 whole entry): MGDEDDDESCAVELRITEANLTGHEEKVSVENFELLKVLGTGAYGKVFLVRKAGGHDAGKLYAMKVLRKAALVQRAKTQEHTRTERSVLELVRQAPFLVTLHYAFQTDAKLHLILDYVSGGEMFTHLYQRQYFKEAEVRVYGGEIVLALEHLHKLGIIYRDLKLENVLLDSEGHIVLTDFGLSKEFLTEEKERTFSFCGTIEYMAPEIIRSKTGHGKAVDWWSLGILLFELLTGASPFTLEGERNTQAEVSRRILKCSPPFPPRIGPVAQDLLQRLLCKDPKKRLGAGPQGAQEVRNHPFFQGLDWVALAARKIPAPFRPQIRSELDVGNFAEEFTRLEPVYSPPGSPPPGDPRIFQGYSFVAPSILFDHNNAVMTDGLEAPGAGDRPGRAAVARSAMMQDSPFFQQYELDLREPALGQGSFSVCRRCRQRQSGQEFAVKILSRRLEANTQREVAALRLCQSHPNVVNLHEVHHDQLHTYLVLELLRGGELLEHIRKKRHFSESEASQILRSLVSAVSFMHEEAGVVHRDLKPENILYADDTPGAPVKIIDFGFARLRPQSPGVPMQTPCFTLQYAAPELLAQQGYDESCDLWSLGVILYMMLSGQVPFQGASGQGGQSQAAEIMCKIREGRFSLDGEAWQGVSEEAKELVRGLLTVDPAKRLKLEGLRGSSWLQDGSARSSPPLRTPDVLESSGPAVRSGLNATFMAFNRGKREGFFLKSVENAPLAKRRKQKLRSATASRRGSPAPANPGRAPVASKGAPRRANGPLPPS
`Cn1ncc(Cl)c1-c1cc(C(=O)N[C@H](CN)Cc2cccc(F)c2)sc1Cl` [AFURESERTIB] was tested, and the Kd was > 30 µM (inactive). `COc1cc(N2CCC(N3CCN(C)CC3)CC2)ccc1Nc1ncnc(Nc2ccccc2S(=O)(=O)C(C)C)n1` [ASP-3026] was tested, and the Kd was > 30 µM (inactive). For `CNS(=O)(=O)Nc1nccc(Cc2c(C)c3ccc(Oc4ncccn4)cc3oc2=O)c1F` [AVUTOMETINIB], the Kd was > 30 µM (inactive).

What follows are compounds tested against Mitogen-activated protein kinase kinase kinase 1 (Homo sapiens, UniProt Q13233).
Mitogen-activated protein kinase kinase kinase 1, sequence (Q13233 whole entry): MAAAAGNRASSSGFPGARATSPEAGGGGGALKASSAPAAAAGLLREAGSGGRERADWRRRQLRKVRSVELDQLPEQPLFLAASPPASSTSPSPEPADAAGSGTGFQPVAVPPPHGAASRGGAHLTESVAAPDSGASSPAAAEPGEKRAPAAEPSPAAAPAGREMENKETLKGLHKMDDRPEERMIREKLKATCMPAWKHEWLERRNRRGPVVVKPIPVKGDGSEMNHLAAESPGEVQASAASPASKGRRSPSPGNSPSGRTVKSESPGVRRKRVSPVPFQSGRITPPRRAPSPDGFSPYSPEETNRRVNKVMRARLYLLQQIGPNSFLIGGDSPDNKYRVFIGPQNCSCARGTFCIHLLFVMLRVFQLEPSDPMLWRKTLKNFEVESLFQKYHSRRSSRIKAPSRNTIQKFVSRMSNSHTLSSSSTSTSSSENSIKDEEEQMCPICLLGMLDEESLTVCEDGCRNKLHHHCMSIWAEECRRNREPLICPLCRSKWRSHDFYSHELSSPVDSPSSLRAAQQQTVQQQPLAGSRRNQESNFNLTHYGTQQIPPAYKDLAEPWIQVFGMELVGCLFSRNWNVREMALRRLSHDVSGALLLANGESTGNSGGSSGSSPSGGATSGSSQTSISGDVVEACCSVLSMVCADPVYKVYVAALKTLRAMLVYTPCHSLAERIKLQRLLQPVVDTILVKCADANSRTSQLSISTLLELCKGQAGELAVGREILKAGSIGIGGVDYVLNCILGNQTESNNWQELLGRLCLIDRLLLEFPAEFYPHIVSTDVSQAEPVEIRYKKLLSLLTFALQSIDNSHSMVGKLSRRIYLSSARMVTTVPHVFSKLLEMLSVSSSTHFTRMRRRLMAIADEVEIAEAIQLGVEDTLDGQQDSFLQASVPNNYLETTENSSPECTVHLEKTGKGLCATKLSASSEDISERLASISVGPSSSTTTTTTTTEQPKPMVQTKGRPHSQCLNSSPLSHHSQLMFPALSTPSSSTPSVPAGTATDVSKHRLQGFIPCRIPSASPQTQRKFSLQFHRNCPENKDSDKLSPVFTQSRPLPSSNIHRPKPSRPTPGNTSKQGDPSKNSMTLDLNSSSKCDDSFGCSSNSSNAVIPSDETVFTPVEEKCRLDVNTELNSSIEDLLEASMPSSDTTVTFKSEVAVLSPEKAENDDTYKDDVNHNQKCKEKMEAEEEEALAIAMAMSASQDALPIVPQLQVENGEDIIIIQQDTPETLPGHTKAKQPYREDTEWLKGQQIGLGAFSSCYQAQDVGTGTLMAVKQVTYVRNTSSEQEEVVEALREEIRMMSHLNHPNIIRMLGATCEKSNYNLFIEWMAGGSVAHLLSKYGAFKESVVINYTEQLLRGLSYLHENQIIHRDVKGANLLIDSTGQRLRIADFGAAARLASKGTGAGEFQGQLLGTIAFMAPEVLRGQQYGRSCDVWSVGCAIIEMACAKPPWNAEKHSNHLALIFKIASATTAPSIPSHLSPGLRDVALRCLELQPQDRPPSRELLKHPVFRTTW
`Cn1ncc(Cl)c1-c1cc(C(=O)N[C@H](CN)Cc2cccc(F)c2)sc1Cl` [AFURESERTIB] was tested, and the Kd was > 30 µM (inactive). With `COc1cc(N2CCC(N3CCN(C)CC3)CC2)ccc1Nc1ncnc(Nc2ccccc2S(=O)(=O)C(C)C)n1` [ASP-3026] the Kd was > 30 µM (inactive). In the case of `CNS(=O)(=O)Nc1nccc(Cc2c(C)c3ccc(Oc4ncccn4)cc3oc2=O)c1F` [AVUTOMETINIB], the Kd is reported as > 30 µM (inactive).

What follows are compounds tested against STE20-like serine/threonine-protein kinase (Homo sapiens, UniProt Q9H2G2).
With `Cn1ncc(Cl)c1-c1cc(C(=O)N[C@H](CN)Cc2cccc(F)c2)sc1Cl` [AFURESERTIB] the Kd was > 30 µM (inactive). In the case of `COc1cc(N2CCC(N3CCN(C)CC3)CC2)ccc1Nc1ncnc(Nc2ccccc2S(=O)(=O)C(C)C)n1` [ASP-3026], the Kd is reported as 36.3 µM (active). With `CNS(=O)(=O)Nc1nccc(Cc2c(C)c3ccc(Oc4ncccn4)cc3oc2=O)c1F` [AVUTOMETINIB] the Kd was > 30 µM (inactive).

These compounds were tested against T2, Mitogen-activated protein kinase kinase kinase 2 (Homo sapiens, UniProt Q9Y2U5).
T2 sequence (Q9Y2U5 whole entry): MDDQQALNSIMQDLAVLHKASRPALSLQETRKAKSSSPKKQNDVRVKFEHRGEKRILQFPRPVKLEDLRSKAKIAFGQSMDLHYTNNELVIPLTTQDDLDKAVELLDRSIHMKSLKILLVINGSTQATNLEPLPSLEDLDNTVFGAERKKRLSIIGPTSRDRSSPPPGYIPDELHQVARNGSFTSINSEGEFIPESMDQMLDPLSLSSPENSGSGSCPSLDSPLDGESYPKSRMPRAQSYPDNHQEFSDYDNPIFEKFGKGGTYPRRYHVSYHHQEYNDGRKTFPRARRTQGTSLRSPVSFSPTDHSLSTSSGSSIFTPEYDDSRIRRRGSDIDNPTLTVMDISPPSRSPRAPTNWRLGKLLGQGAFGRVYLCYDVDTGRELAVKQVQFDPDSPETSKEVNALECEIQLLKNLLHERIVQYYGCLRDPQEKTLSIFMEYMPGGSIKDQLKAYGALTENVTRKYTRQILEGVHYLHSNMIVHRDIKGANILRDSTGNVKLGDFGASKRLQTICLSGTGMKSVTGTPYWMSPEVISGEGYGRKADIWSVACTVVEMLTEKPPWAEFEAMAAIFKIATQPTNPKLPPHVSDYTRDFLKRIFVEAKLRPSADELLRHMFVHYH
For `Cn1ncc(Cl)c1-c1cc(C(=O)N[C@H](CN)Cc2cccc(F)c2)sc1Cl` [AFURESERTIB], the Kd was > 30 µM (inactive). `COc1cc(N2CCC(N3CCN(C)CC3)CC2)ccc1Nc1ncnc(Nc2ccccc2S(=O)(=O)C(C)C)n1` [ASP-3026] was tested, and the Kd was > 30 µM (inactive). With `CNS(=O)(=O)Nc1nccc(Cc2c(C)c3ccc(Oc4ncccn4)cc3oc2=O)c1F` [AVUTOMETINIB] the Kd was > 30 µM (inactive).

What follows are compounds tested against Atypical kinase COQ8A, mitochondrial (Homo sapiens, UniProt Q8NI60).
Atypical kinase COQ8A, mitochondrial, sequence (Q8NI60 whole entry): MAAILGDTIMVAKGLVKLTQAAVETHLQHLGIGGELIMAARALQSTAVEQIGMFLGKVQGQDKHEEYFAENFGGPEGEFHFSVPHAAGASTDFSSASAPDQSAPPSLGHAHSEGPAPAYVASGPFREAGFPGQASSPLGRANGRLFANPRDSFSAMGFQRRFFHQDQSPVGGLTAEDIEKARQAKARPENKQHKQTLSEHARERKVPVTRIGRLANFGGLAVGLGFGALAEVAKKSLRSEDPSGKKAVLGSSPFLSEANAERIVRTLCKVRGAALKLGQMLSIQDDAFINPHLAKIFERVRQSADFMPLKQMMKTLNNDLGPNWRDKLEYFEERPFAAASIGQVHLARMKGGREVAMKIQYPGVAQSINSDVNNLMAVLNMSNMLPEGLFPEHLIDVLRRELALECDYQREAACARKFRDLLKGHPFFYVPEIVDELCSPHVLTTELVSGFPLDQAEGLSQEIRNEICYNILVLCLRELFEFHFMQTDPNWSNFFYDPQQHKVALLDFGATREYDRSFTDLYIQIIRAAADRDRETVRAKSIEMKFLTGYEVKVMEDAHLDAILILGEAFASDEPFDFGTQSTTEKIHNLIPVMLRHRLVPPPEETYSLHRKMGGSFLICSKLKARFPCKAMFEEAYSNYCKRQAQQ
`Cn1ncc(Cl)c1-c1cc(C(=O)N[C@H](CN)Cc2cccc(F)c2)sc1Cl` [AFURESERTIB] was tested, and the Kd was > 30 µM (inactive). `COc1cc(N2CCC(N3CCN(C)CC3)CC2)ccc1Nc1ncnc(Nc2ccccc2S(=O)(=O)C(C)C)n1` [ASP-3026] was tested, and the Kd was > 30 µM (inactive). `CNS(=O)(=O)Nc1nccc(Cc2c(C)c3ccc(Oc4ncccn4)cc3oc2=O)c1F` [AVUTOMETINIB] was tested, and the Kd was > 30 µM (inactive).

What follows are compounds tested against Tyrosine-protein kinase Fer (Homo sapiens, UniProt P16591).
With `Cn1ncc(Cl)c1-c1cc(C(=O)N[C@H](CN)Cc2cccc(F)c2)sc1Cl` [AFURESERTIB] the Kd was > 30 µM (inactive). With `COc1cc(N2CCC(N3CCN(C)CC3)CC2)ccc1Nc1ncnc(Nc2ccccc2S(=O)(=O)C(C)C)n1` [ASP-3026] the Kd was 0.363 µM (active). With `CNS(=O)(=O)Nc1nccc(Cc2c(C)c3ccc(Oc4ncccn4)cc3oc2=O)c1F` [AVUTOMETINIB] the Kd was > 30 µM (inactive).

These compounds were tested against Deoxycytidine kinase (Homo sapiens, UniProt P27707).
For `Cn1ncc(Cl)c1-c1cc(C(=O)N[C@H](CN)Cc2cccc(F)c2)sc1Cl` [AFURESERTIB], the Kd was > 30 µM (inactive). In the case of `COc1cc(N2CCC(N3CCN(C)CC3)CC2)ccc1Nc1ncnc(Nc2ccccc2S(=O)(=O)C(C)C)n1` [ASP-3026], the Kd is reported as > 30 µM (inactive). In the case of `CNS(=O)(=O)Nc1nccc(Cc2c(C)c3ccc(Oc4ncccn4)cc3oc2=O)c1F` [AVUTOMETINIB], the Kd is reported as > 30 µM (inactive).

What follows are compounds tested against Tyrosine-protein kinase Lyn (Homo sapiens, UniProt P07948).
Tyrosine-protein kinase Lyn, sequence (P07948 whole entry): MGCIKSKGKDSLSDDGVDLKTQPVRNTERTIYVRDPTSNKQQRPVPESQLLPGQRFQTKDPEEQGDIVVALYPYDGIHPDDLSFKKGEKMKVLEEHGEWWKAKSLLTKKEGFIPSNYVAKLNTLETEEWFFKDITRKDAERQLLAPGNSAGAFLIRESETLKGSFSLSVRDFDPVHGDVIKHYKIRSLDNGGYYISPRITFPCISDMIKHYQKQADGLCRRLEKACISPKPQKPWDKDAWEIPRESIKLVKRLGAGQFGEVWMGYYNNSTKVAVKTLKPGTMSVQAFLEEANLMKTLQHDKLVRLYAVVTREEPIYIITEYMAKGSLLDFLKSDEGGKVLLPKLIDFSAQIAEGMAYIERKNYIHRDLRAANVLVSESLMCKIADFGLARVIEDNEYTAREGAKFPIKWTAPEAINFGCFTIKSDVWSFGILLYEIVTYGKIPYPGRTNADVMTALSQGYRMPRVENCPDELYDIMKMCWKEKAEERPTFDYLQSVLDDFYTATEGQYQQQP
With `Cn1ncc(Cl)c1-c1cc(C(=O)N[C@H](CN)Cc2cccc(F)c2)sc1Cl` [AFURESERTIB] the Kd was > 30 µM (inactive). In the case of `COc1cc(N2CCC(N3CCN(C)CC3)CC2)ccc1Nc1ncnc(Nc2ccccc2S(=O)(=O)C(C)C)n1` [ASP-3026], the Kd is reported as > 30 µM (inactive). `CNS(=O)(=O)Nc1nccc(Cc2c(C)c3ccc(Oc4ncccn4)cc3oc2=O)c1F` [AVUTOMETINIB] was tested, and the Kd was > 30 µM (inactive).

What follows are compounds tested against T3, ATP-dependent 6-phosphofructokinase, platelet type (Homo sapiens, UniProt Q01813).
T3 sequence (Q01813 whole entry): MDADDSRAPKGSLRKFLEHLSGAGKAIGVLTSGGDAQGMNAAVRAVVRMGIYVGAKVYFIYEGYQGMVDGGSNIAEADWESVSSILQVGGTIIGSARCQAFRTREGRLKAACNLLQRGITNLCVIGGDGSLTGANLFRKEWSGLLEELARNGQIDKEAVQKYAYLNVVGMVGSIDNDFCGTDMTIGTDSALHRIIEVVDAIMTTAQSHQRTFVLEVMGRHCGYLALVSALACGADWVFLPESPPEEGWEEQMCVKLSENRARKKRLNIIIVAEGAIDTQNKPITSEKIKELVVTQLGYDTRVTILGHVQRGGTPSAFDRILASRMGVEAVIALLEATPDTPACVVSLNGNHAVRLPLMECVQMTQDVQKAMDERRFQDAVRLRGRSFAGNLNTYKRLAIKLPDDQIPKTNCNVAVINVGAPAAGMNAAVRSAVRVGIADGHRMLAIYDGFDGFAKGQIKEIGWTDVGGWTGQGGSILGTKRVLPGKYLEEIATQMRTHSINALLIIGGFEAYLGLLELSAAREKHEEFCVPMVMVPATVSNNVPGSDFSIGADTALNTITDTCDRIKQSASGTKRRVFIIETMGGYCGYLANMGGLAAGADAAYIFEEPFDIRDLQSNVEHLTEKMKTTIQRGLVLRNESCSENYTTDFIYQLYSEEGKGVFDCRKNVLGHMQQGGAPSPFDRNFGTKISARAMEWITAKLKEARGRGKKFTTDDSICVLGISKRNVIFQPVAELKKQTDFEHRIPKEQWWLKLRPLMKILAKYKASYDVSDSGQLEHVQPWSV
With `Cn1ncc(Cl)c1-c1cc(C(=O)N[C@H](CN)Cc2cccc(F)c2)sc1Cl` [AFURESERTIB] the Kd was > 30 µM (inactive). With `COc1cc(N2CCC(N3CCN(C)CC3)CC2)ccc1Nc1ncnc(Nc2ccccc2S(=O)(=O)C(C)C)n1` [ASP-3026] the Kd was > 30 µM (inactive). `CNS(=O)(=O)Nc1nccc(Cc2c(C)c3ccc(Oc4ncccn4)cc3oc2=O)c1F` [AVUTOMETINIB] was tested, and the Kd was > 30 µM (inactive).
